This is an account of results in PMC6804079, “Investigation of 5’-Norcarbocyclic Nucleoside Analogues as Antiprotozoal and Antibacterial Agents” (Molecules, 2019).

In brackets after ≈: the same amount, converted by molar mass. Several values for one entry are separate records, joined by “and”; a condition that tells them apart may be missing. Equal values may be shown once.

For one data set, the system named is Tbb-5FURes. Briefly: microbe, parasite or virus in culture. The data set is classed as cell-based, Trypanosoma brucei brucei. The following applies: for EC50: Trypanosoma brucei, read-out: T. Brucei, EC50, Tbb-5FURes.
Data set [1] relates to L. mexicana 5FURes (Lmex5FURes). The following applies: differences in EC50 between wild-type and 5FU-resistant L. mexicana.
Protocol: (§1) Promastigotes of Leishmania mexicana strain MNY/BZ/62/M379 was cultured in a minimal essential medium, HO-MEMO-MEME, supplemented with 10% FBS and 1% of a penicillin/streptomycin solution (Gibco) as described previously [39] at 25 °C. The L. mexicana 5FURes strain was the same strain but adapted in vitro to high levels of 5FU exactly as described for T. brucei [12].
(§2) The resazurin assay for L. mexicana promastigotes was performed exactly as for T. b. brucei, except that incubation times of 72 and 48 h were used before and after the addition of resazurin, respectively, due to the slower metabolism of the dye by Leishmania promastigotes [42].
The subject of data set [2] is T. b. brucei strain Lister 427 (s427-WT). Briefly: resazurin EC50 assay, T. b. brucei wild-type bloodstream forms. The following applies: Trypanosoma brucei, 72 h, 48 h + 24 h resazurin, average and SEM, at least three determinations, NE = no effect on cell viability at 100 µM. The data set is classed as cell-based, Trypanosoma brucei brucei.
Another data set concerns T. brucei 2T1 PYR6-5 −/−. Kind of data set: microbe, parasite or virus in culture. The data set is classed as cell-based, Trypanosoma brucei brucei. Particulars: for EC50: Trypanosoma brucei, read-out: T. Brucei, EC50, 2T1 PYR6-5 −/−.
A further data set deals with T. brucei B48. Kind of data set: microbe, parasite or virus in culture. The data set is classed as cell-based, Trypanosoma brucei brucei. Particulars: Trypanosoma brucei, read-out: T. Brucei, EC50, B48.
Data set [3] concerns L. mexicana 5FURes (Lmex5FURes). Kind of data set: microbe, parasite or virus in culture. Particulars: Leishmania mexicana, read-out: L. Mexicana 5FUR, EC50.
Protocol: as §1, §2
In the next data set the test system is M. tuberculosis H37Rv. Kind of data set: microbe, parasite or virus in culture. The following applies: Mycobacterium tuberculosis, control drugs at critical concentrations. In kind it is cell-based.
A further data set deals with M. tuberculosis MS-115. Briefly: microbe, parasite or virus in culture. The data set is classed as cell-based. The following applies: Mycobacterium tuberculosis, MS115, read-out: M. Tuberculosis MS-115 MIC.
In data set [4] the test system is M. tuberculosis ATCC 25,177 (H37Ra). Kind of data set: microbe, parasite or virus in culture. In kind it is cell-based, Mycobacterium tuberculosis. The following applies: Mycobacterium tuberculosis, read-out: M. Tuberculosis 25,177 MIC.
Data set [5] deals with Trypanosoma and Leishmania. Set-up: method as in PMID 28571825. The following applies: equivalent activity against both pathogens; cited from earlier work.
Another data set has as its system U-937 cells. Briefly: U-937 cytotoxicity (XTT). In kind it is cell-based. Particulars: 6 days incubation. The method, then:
The U-937 cells used in the cytotoxicity evaluation were obtained from the AIDS Research and Reference Program. The cells were cultured as indicated by the supplier in RPMI-1640 supplemented with 10% heat inactivated FBS, 1% penicillin/streptomycin solution, and 1% L-glutamine.
U-937 cells plated at 2.5 × 10^3 cells/well in a volume of 100 µL were incubated with serially diluted test compounds in a volume of 100 µL for 6 days at 37 °C/5% CO2. Following the incubation, the cells were stained by adding 50 μL tetrazolium dye XTT (Sigma) solution at 5 mg/mL to determine cellular viability and read at 460/650 nm on a spectrophotometer. Toxicity values were calculated using linear regression analysis.

In data set [6] the test system is L. mexicana WT promastigotes (strain MNY/BZ/62/M379). Kind of data set: resazurin EC50 assay, L. mexicana promastigotes wild-type. The following applies: 72 h + 48 h resazurin, average and SEM, NE = no effect on cell viability at 100 µM. Background: The colour change of resazurin is a common sign of viable cells or microbes.
Protocol: as §1, §2
In the next data set the test system is T. vaginalis strain G3. Kind of data set: resorufin-based EC50 assay, T. vaginalis. Particulars: Trichomonas vaginalis, read-out: Trichomonas Vaginalis, EC50.

Protocol for T. vaginalis strain G3: The standard metronidazole-susceptible T. vaginalis strain G3was originally obtained from Jeremy Mottram (University of York, UK) and cultured in a modification of Diamond′s medium supplemented with 10% horse serum with a composition as described [40] at 37 °C under anaerobic conditions. Cultures were passaged daily.
Drugs were tested on T. vaginalis using a resorufin-based assay that we developed [40, 43]. The assay is based on the principle that live T. vaginalis trophozoites are, almost uniquely, able to reduce fluorescent, pink resorufin to non-fluorescent, colorless dihydro-resorufin. This conversion was measured as a dose-dependent increase in fluorescence (with dead cells unable to metabolize the fluorophore; λexc 544 nm, λem 599 nm), resulting in a sigmoid curve with variable slope that yielded EC50 values (Prism 6.0). Plates contained 11 doubling dilutions (1 row) and no-drug control for each compound starting at 100 µM under anaerobic conditions as described [40, 43]. Fluorescence was determined in a PheraStar plate reader (BMG Labtech).

In the case of `O=c1[nH]cc(F)c(=O)[nH]1` [5-Fluorouracil, reference compound], the EC50 in the data set with Tbb-5FURes stood at 2500 ± 76 µM; in data set [2] it was 87 ± 6.4 µM; in the data set with T. brucei 2T1 PYR6-5 −/−, 2.33 ± 0.35 µM; in the data set with T. brucei B48, 101 ± 7 µM; in data set [3], 3520 ± 440 µM. Also, the “fold difference in EC50, 5FURes versus wild-type” value with Tbb-5FURes (resistance to 5FU, reduction in trypanocidal activity for test compounds) is 28.7 fold. The “fold resistance, Lmex5FURes versus wild-type” value in [1] is listed as above 400 fold. In addition, the “fold difference in EC50, PYR6-5 −/− versus wild-type” value in the data set on T. brucei 2T1 PYR6-5 −/− (sensitization for 5FU, reduction in trypanocidal activity for test compounds) is on record as 37.4 fold.

Turning to `CCCCCCCCCCCCC#Cc1cn([C@H]2C=C[C@@H](O)C2)c(=O)n([C@H]2C=C[C@@H](O)C2)c1=O` [Compound 1, 1-[4′-Hydroxy-2′-cyclopenten-1′-yl]-3-(4′′-hydroxy-2′′-cyclopent-en-1′′-yl)-5-tetradecynyluracil], the EC50 in the data set on Tbb-5FURes is 7.5 ± 0.1 µM; in data set [5], 8 to 11.9 µM; in data set [2] it was 8 ± 0.1 µM; in the data set with T. brucei 2T1 PYR6-5 −/− it was 9.2 ± 0.4 µM; in the data set on T. brucei B48, 9 ± 0.1 µM; in data set [3], 11.4 ± 0.3 µM. For the same molecule, the MIC with M. tuberculosis H37Rv is 50 µg/mL (≈ 107 µM); in the data set with M. tuberculosis MS-115, above 50 µg/mL; in data set [4], 250 µM and 117 µg/mL. In the data set with U-937 cells, the “U-937 Cells TC50” value was 66.3 µM.

As for `O=c1c(C#CCO)cn([C@H]2C=C[C@@H](O)C2)c(=O)n1[C@H]1C=C[C@@H](O)C1` [Compound 9, 1-[4′-Hydroxy-2′-cyclopenten-1′-yl]-3-(4′′-hydroxy-2′′-cyclopent-en-1′′-yl)-5-(hydroxypropynyl)uracil], the EC50 was 74.9 ± 3.5 µM with Tbb-5FURes; 66.8 ± 6.6 µM in [2]; 59.9 ± 1 µM in the data set with T. brucei 2T1 PYR6-5 −/−; 84.8 ± 0.004 µM in the data set on T. vaginalis strain G3; 76.8 ± 4.4 µM in the data set on T. brucei B48; above 100 µM in data set [3]. For the same molecule, the “L. Mexicana WT, EC50” value in data set [6] is “did not show any antileishmanial activity at all”. Further, in data set [4], the MIC was 1000 µM and 330 µg/mL. Moreover, in the data set with U-937 cells, the “U-937 Cells TC50” value was above 100 µM.
